This note sets out measurements from ChEMBL document CHEMBL1795325, “Studying synergism of methyl linked cyclohexyl thiophenes with triazole: synthesis and their cdk5/p25 inhibition activity” (Eur J Med Chem, 2011).

One data set has as its system Vero. Briefly: Cytotoxicity against african green monkey Vero C1008 cells at 6.25 to 50 ug/ml by neutral red uptake assay. It is filed as cell-based. As to conditions: chlorocebus sabaeus.
For data set [1], the target named is Cyclin-dependent kinase 5/CDK5 activator 1 (Homo sapiens, UniProt Q00535). The format is protein-complex assay.
Cyclin-dependent kinase 5/CDK5 activator 1, sequence (Q00535 whole entry): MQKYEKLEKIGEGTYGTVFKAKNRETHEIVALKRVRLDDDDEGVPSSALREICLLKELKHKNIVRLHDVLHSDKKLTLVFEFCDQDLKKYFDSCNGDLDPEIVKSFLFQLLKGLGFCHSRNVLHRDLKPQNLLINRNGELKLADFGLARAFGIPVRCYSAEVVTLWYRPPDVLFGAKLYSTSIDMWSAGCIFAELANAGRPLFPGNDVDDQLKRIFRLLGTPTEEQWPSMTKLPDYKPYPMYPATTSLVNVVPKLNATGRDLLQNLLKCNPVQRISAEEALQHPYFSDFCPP
Cyclin-dependent kinase 5/CDK5 activator 1, sequence (Q15078 whole entry, further chain): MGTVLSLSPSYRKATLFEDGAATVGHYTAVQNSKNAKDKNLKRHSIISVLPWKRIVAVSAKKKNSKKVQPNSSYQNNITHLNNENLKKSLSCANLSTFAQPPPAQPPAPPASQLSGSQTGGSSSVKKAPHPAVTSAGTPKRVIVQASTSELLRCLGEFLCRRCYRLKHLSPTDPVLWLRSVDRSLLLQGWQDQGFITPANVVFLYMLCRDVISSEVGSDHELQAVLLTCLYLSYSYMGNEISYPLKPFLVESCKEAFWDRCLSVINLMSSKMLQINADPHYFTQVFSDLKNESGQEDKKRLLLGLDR
The nature of data set [2]: Selectivity ratio, ratio of IC50 for CDK2/Cyclin E to IC50 for CDK5/p25.
The target of data set [3] is Cyclin-dependent kinase 2/cyclin E1 (Homo sapiens, UniProt P24941). Briefly: Inhibition of CDK2/Cyclin E by scintillation proximity assay. The format is protein-complex assay.

Regarding `CC(=O)Nn1c(Cc2c(NC(=O)CCl)sc3c2CCCC3)nnc1SCC(=O)NNC(=O)c1ccccc1`, the Activity result in the data set with Vero is listed as “Non-toxic”. The compound also yielded an IC50 in data set [1] of 363 nM.
Turning to `CC(=O)Nc1sc2c(c1Cc1nnc(SCC(=O)NN)n1NC(=O)c1ccc(Cl)cc1)CCCC2`, the Ratio IC50 in data set [2] worked out at 9.2. For the same compound, the IC50 was determined as 587 nM in data set [3] and 64 nM in data set [1].
With `O=C(CSc1nnc(Cc2c(NC(=O)CCl)sc3c2CCCC3)n1NC(=O)c1ccccc1)NNC(=O)c1ccccc1`, the Activity entry in the data set on Vero is “Non-toxic”. Also, the midpoint of inhibition in data set [1], the IC50, lay at 468 nM.
The like results for `O=C(CCl)Nc1sc2c(c1Cc1nnc(SCSc3nnc(Cc4c(NC(=O)CCl)sc5c4CCCC5)n3NC(=O)c3ccc(Cl)cc3)n1NC(=O)c1ccc(Cl)cc1)CCCC2` were, in that order, “Non-toxic” and 340 nM.
For `Nn1c(S)nnc1CSc1nnc(Cc2c(NC(=O)CCl)sc3c2CCCC3)n1NC(=O)c1ccccc1`, the Activity entry in the data set on Vero is listed as “Non-toxic”. Moreover, the half-maximal inhibitory concentration (IC50) in data set [1] amounted to 6180 nM.
The matching figures for `O=C(CCl)NNC(=O)CSc1nnc(Cc2c(NC(=O)CCl)sc3c2CCCC3)n1NC(=O)c1ccccc1`: “Non-toxic” and 532 nM.
In the case of `CC(=O)NNC(=O)CSc1nnc(Cc2c(NC(=O)CCl)sc3c2CCCC3)n1NC(=O)c1ccccc1`, the Activity entry in the data set on Vero is on record as “Non-toxic”. In data set [1], this compound came in with an IC50 of 350 nM.
The like results for `CC(=O)NNC(=O)CSc1nnc(Cc2c(NC(=O)CCl)sc3c2CCCC3)n1NC(=O)c1ccc(Cl)cc1` were, in that order, “Non-toxic” and 468 nM.
As for `O=C(CSc1nnc(Cc2c(NC(=O)CCl)sc3c2CCCC3)n1NC(=O)c1ccccc1)N/N=C/c1ccccc1`, the Activity entry in the data set with Vero is on record as “Non-toxic”. In data set [2], the Ratio IC50 is over 17.5. In addition, the values for the IC50 in data set [3] and in data set [1] were 560 nM and 32 nM, respectively.
Consider `O=C(Cc1c(NC(=O)c2ccccc2)sc2c1CCCC2)NNC(=S)[S-].[K+]`, for which the Activity entry in the data set on Vero is given as “Non-toxic”. Also, half-maximal inhibition in data set [1] (IC50) was put at 373 nM.
In the case of `COC(=O)CSc1nnc(Cc2c(NC(=O)CCl)sc3c2CCCC3)n1NC(=O)c1ccc(Cl)cc1`, the Activity entry in the data set on Vero is “Non-toxic”. The same compound returned an IC50 in data set [1] of 443 nM.
Regarding `CC(=O)Nn1c(Cc2c(NC(=O)CCl)sc3c2CCCC3)n[nH]c1=S`, in the data set on Vero, the Activity entry is “Non-toxic”. In data set [1], this compound yielded an IC50 of 689 nM.
The matching figures for `O=C(CCl)Nc1sc2c(c1Cc1n[nH]c(=S)n1NC(=O)c1ccc(Cl)cc1)CCCC2`: “Non-toxic” and 343 nM.
The like results for `N#CCSc1nnc(Cc2c(NC(=O)CCl)sc3c2CCCC3)n1NC(=O)c1ccccc1` were, in that order, “Non-toxic” and 657 nM.
The matching figures for `O=C(CCl)Nc1sc2c(c1Cc1nnc(SCSc3nnc(Cc4c(NC(=O)CCl)sc5c4CCCC5)n3NC(=O)c3ccccc3)n1NC(=O)c1ccccc1)CCCC2`: “Non-toxic” and 669 nM.
With `O=C(Cc1c(NC(=O)CCl)sc2c1CCCC2)NNC(=S)[S-].[K+]`, the Activity entry with Vero was “Non-toxic”. The compound further displayed an IC50 in data set [1] of 247 nM.
The like results for `CC(=O)Nc1sc2c(c1Cc1nnc(S)n1N)CCCC2` were, in that order, “Non-toxic” and 386 nM.
`N#CCSc1nnc(Cc2c(NC(=O)CCl)sc3c2CCCC3)n1NC(=O)c1ccc(Cl)cc1`: the Activity result with Vero was “Non-toxic”. In addition, the Ratio IC50 in data set [2] came to 19.6. Also, the IC50 in data set [3] was 1140 nM; in data set [1], 58 nM.
`O=C(CCl)Nc1sc2c(c1Cc1n[nH]c(=S)n1NC(=O)c1ccccc1)CCCC2`: the Activity entry in the data set on Vero is listed as “Non-toxic”. Moreover, the IC50 in data set [1] is 751 nM.
The like results for `CC(=O)Nn1c(Cc2c(NC(=O)CCl)sc3c2CCCC3)nnc1SCC(=O)NNC(=O)CCl` were, in that order, “Non-toxic” and 452 nM.
As to `O=C(CSc1nnc(Cc2c(NC(=O)CCl)sc3c2CCCC3)n1NC(=O)c1ccc(Cl)cc1)NNC(=O)c1ccccc1`, the Activity result in the data set with Vero was “Non-toxic”. For the same compound, the half-inhibitory concentration (IC50) in data set [1] turned out to be 617 nM.
The like results for `CC(=O)NNC(=O)CSc1nnc(Cc2c(NC(=O)CCl)sc3c2CCCC3)n1NC(C)=O` were, in that order, “Non-toxic” and 454 nM.
The matching figures for `CC(=O)Nc1sc2c(c1CC(=O)NNC(=S)[S-])CCCC2.[K+]`: “Non-toxic” and 346 nM.
With `CC(=O)Nn1c(Cc2c(NC(=O)CCl)sc3c2CCCC3)nnc1SCC#N`, the Activity entry in the data set on Vero is reported as “Non-toxic”. For the same compound, in data set [2], the Ratio IC50 turned out to be 21.6. For the same compound, the half-inhibitory concentration (IC50) in data set [3] is 1320 nM; in data set [1], 61 nM.
Take `Nn1c(S)nnc1Cc1c(NC(=O)c2ccccc2)sc2c1CCCC2`: in the data set on Vero, the Activity entry was “Non-toxic”. Also, in data set [1], 621 nM corresponded to half-maximal inhibition (IC50).
`COC(=O)CSc1nnc(Cc2c(NC(=O)CCl)sc3c2CCCC3)n1NC(C)=O`: the Activity result with Vero was “Non-toxic”. In data set [1], this compound showed an IC50 of 695 nM.
The like results for `CC(=O)Nn1c(Cc2c(NC(=O)CCl)sc3c2CCCC3)nnc1SCc1n[nH]c(=S)n1N` were, in that order, “Non-toxic” and 4030 nM.
The like results for `COC(=O)CSc1nnc(Cc2c(NC(=O)CCl)sc3c2CCCC3)n1NC(=O)c1ccccc1` were, in that order, “Non-toxic” and 681 nM.
The like results for `Nn1c(S)nnc1CSc1nnc(Cc2c(NC(=O)CCl)sc3c2CCCC3)n1NC(=O)c1ccc(Cl)cc1` were, in that order, “Non-toxic” and 2860 nM.
For `CC(=O)Nn1c(Cc2c(NC(=O)CCl)sc3c2CCCC3)nnc1SCSc1nnc(Cc2c(NC(=O)CCl)sc3c2CCCC3)n1NC(C)=O`, in the data set with Vero, the Activity result is recorded as “Non-toxic”. It took 849 nM to reach half-maximal inhibition in data set [1] (IC50).
Consider `O=C(CCl)NNC(=O)CSc1nnc(Cc2c(NC(=O)CCl)sc3c2CCCC3)n1NC(=O)c1ccc(Cl)cc1`, for which the Activity entry with Vero was “Non-toxic”. Moreover, in data set [1], the IC50 is 229 nM.
In the case of `Nn1c(S)nnc1Cc1c(NC(=O)CCl)sc2c1CCCC2`, in the data set with Vero, the Activity result is recorded as “Non-toxic”. Further, the Ratio IC50 in data set [2] was found to be 1.2. For the same compound, the IC50 worked out at 52 nM in data set [3] and 43 nM in data set [1].
The matching figures for `CC(=O)Nn1c(Cc2c(NC(=O)CCl)sc3c2CCCC3)nnc1SCC(=O)NN`: “Non-toxic”, 98.1, 5990 nM and 61 nM.
As for `Nn1c(S)nnc1Cc1c(NCCC(=O)O)sc2c1CCCC2`, in the data set with Vero, the Activity result was “Non-toxic”. Moreover, in data set [1], the IC50 amounted to 268 nM.
For `NNC(=O)CSc1nnc(Cc2c(NC(=O)CCl)sc3c2CCCC3)n1NC(=O)c1ccc(Cl)cc1`, the Activity entry in the data set on Vero is “Non-toxic”. Also, in data set [2], the Ratio IC50 turned out to be 20.5. For the same compound, the figures for the IC50 in data set [3] and in data set [1] were 799 nM and 39 nM, respectively.
As for `O=C(O)CCNc1sc2c(c1CC(=O)NNC(=S)[S-])CCCC2.[K+]`, in the data set on Vero, the Activity entry was “Non-toxic”. The half-inhibitory concentration (IC50) in data set [1] turned out to be 397 nM.
The like results for `CC(=O)Nn1c(Cc2c(NC(=O)CCl)sc3c2CCCC3)nnc1SCC(=O)N/N=C/c1ccccc1` were, in that order, “Non-toxic” and 336 nM.
As to `NNC(=O)CSc1nnc(Cc2c(NC(=O)CCl)sc3c2CCCC3)n1NC(=O)c1ccccc1`, the Activity entry in the data set with Vero is “Non-toxic”. Also, in data set [2], the Ratio IC50 amounted to 13.2. The IC50 in data set [3] is 487 nM; in data set [1], 37 nM.
Turning to `NNC(=O)CSc1nnc(Cc2c(NCCC(=O)O)sc3c2CCCC3)n1NC(=O)c1ccc(Cl)cc1`, the IC50 in data set [1] came to 201 nM.
For `CC(=O)Nc1sc2c(c1Cc1nnc(SCC(=O)NNC(=O)CCl)n1NC(=O)c1ccccc1)CCCC2`, the concentration for half-maximal inhibition (IC50) in data set [1] worked out at 643 nM.
`O=C(CSc1nnc(Cc2c(NC(=O)CCl)sc3c2CCCC3)n1NC(=O)c1ccc(Cl)cc1)N/N=C/c1ccccc1`: in the data set on Vero, the Activity entry is “Non-toxic”. Moreover, in data set [2], the Ratio IC50 came out at 1.4. The IC50 was found to be 48 nM in data set [3] and 35 nM in data set [1].
For the compound `CC(=O)NNC(=O)CSc1nnc(Cc2c(NCCC(=O)O)sc3c2CCCC3)n1NC(C)=O`, the concentration for half-maximal inhibition (IC50) in data set [1] is 366 nM.
Take `CC(=O)Nc1sc2c(c1Cc1nnc(SCC(=O)NNC(=O)CCl)n1NC(=O)c1ccc(Cl)cc1)CCCC2`: the IC50 in data set [1] turned out to be 260 nM.

By IC50 is commonly meant the midpoint of a concentration-inhibition curve.
